One experiment deals with SN12C. As to the kind of experiment: NCI 60 cell panel SRB screen. It counts as cell-based. The note with it: Homo sapiens, single dose 10 μM, read-out: percent cell growth promotion.
The subject of another experiment is SK-OV-3. As to the kind of experiment: NCI 60 cell panel SRB screen. It counts as cell-based. The conditions noted are these: Homo sapiens; SK-OV-3, single dose 10 μM; read-out: percent cell growth promotion.
Another experiment relates to U251. As to the kind of experiment: NCI 60 cell panel SRB screen. It counts as cell-based. The note with it: Homo sapiens, U-251; U251, single dose 10 μM; read-out: percent cell growth promotion.
The next experiment has as its system HOP-92. As to the kind of experiment: NCI 60 cell panel SRB screen. It counts as cell-based. The note with it: Homo sapiens; HOP-92, single dose 10 μM; read-out: percent cell growth promotion.
In a further experiment the test system is SF-295. As to the kind of experiment: NCI 60 cell panel SRB screen. The class given is cell-based. The conditions noted are these: Homo sapiens; SF-295, single dose 10 μM; read-out: percent cell growth promotion.
The subject of the next experiment is NCI/ADR-RES. Put plainly: NCI 60 cell panel SRB screen. It counts as cell-based. The conditions noted are these: Homo sapiens, single dose 10 μM, read-out: percent cell growth promotion.
Another experiment has as its system RPMI-8226. Put plainly: NCI 60 cell panel SRB screen. The class given is cell-based. The conditions noted are these: Homo sapiens; RPMI-8226, single dose 10 μM; read-out: percent cell growth promotion.
A further experiment has as its system SF-268. As to the kind of experiment: NCI 60 cell panel SRB screen. The conditions noted are these: Homo sapiens; SF-268, single dose 10 μM; read-out: percent cell growth promotion. It counts as cell-based.
The next experiment has as its system UO-31. As to the kind of experiment: NCI 60 cell panel SRB screen. The class given is cell-based. The conditions noted are these: Homo sapiens; UO-31, single dose 10 μM; read-out: percent cell growth promotion.
For a further experiment, the system named is K-562. As to the kind of experiment: NCI 60 cell panel SRB screen. It counts as cell-based. The note with it: Homo sapiens, K562; K-562, single dose 10 μM; read-out: percent cell growth promotion.
The next experiment deals with ACHN. Put plainly: NCI 60 cell panel SRB screen. The class given is cell-based. The note with it: Homo sapiens, single dose 10 μM, read-out: percent cell growth promotion.
The subject of a further experiment is NCI-H23. Put plainly: NCI 60 cell panel SRB screen. The class given is cell-based. The note with it: Homo sapiens; NCI-H23, single dose 10 μM; read-out: percent cell growth promotion.
For the next experiment, the system named is MDA-MB-435. As to the kind of experiment: NCI 60 cell panel SRB screen. The note with it: Homo sapiens, MDA-MB-435, read-out: percent cell growth promotion. It counts as cell-based.
In the next experiment the test system is A549/ATCC. As to the kind of experiment: NCI 60 cell panel SRB screen. The class given is cell-based. The conditions noted are these: Homo sapiens, single dose 10 μM, read-out: percent cell growth promotion.
For the next experiment, the system named is NCI-H522. As to the kind of experiment: NCI 60 cell panel SRB screen. The note with it: Homo sapiens; NCI-H522, single dose 10 μM; read-out: percent cell growth promotion. The class given is cell-based.
The subject of a further experiment is NCI-H322M. Put plainly: NCI 60 cell panel SRB screen. It counts as cell-based. The note with it: Homo sapiens, single dose 10 μM, read-out: percent cell growth promotion.
A further experiment deals with MOLT-4. Put plainly: NCI 60 cell panel SRB screen. The class given is cell-based. The conditions noted are these: Homo sapiens; MOLT-4, single dose 10 μM; read-out: percent cell growth promotion.
The next experiment addresses T1, VEGFR-2 tyrosine kinase (Homo sapiens, UniProt P35968).
T1 construct: purchased BPS Bioscience 40301
Put plainly: In vitro VEGFR-2 tyrosine kinase assay (BPS Bioscience). The class given is biochemical. The conditions noted are these: read-out: VEGFR-2 % inhibition; 10 μM concentration. In a few lines: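 For IC50, ADP formation after a 30-min 30 °C reaction was detected by ADP-Glo luminescence in duplicate, blank-subtracted and fitted as log inhibitor versus normalised response. The 10 µM single-dose test instead measured remaining ATP (Kinase-Glo Plus) after 40 min at 30 °C with poly(Glu,Tyr) substrate, 10 μM ATP, pH 7.4, 1% DMSO.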

Another experiment concerns UACC-257. As to the kind of experiment: NCI 60 cell panel SRB screen. It counts as cell-based. The conditions noted are these: Homo sapiens, UACC-257, read-out: percent cell growth promotion.
The subject of a further experiment is MCF7. As to the kind of experiment: NCI 60 cell panel SRB screen. The class given is cell-based. The conditions noted are these: Homo sapiens, MCF7, read-out: percent cell growth promotion.

Structures are written as SMILES.

T1 sequence (P35968 20-1356): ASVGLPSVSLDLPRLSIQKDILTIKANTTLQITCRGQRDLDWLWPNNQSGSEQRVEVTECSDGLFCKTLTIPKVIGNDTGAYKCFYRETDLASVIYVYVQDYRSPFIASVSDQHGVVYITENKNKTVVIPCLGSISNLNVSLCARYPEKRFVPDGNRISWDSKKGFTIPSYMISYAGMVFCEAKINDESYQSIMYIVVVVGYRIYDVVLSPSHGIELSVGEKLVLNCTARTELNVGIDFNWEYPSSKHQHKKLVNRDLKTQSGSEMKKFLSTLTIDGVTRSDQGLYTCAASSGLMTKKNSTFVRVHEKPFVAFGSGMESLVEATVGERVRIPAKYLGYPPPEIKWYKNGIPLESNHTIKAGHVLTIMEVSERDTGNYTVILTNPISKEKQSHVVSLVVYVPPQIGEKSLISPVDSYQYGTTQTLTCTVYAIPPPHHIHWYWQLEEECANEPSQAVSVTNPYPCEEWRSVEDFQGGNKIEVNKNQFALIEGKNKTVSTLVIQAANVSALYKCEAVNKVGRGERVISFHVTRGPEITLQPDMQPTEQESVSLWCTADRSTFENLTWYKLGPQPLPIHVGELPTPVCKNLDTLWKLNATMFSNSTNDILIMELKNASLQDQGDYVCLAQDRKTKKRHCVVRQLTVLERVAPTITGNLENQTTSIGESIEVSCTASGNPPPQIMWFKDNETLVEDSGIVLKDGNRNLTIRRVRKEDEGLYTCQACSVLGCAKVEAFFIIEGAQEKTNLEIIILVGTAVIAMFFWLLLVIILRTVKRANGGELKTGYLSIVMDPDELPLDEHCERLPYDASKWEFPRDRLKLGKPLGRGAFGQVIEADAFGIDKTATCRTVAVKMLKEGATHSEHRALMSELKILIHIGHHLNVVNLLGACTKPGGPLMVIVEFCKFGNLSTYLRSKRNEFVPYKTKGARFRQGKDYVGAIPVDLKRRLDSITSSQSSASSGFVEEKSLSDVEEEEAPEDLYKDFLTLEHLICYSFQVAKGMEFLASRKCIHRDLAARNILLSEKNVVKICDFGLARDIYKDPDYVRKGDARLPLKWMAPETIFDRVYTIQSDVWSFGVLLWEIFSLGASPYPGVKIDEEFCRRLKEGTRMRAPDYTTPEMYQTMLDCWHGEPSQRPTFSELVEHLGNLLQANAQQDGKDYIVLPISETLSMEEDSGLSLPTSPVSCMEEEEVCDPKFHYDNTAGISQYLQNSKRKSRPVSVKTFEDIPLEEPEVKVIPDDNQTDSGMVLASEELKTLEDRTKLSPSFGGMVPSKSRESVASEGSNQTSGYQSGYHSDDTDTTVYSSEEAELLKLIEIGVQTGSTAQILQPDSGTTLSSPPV

The term inhibition denotes the share of the control response that was lost under treatment. As to `Cc1nnc(N2CCN(c3ccccc3F)CC2)c2ccccc12` [Compound 8h, 1–(4-(2-Fluorophenyl)piperazin-1-yl)-4-methylphthalazine], the activity at 10 µM with SN12C stood at 100%; in the experiment with SK-OV-3 it was 105%; in the experiment with U251, 96.2%; in the experiment on HOP-92 it was 112%; in the experiment with SF-295, 92.7%; in the experiment on NCI/ADR-RES, 96.9%. The activity at 10 µM in the experiment on RPMI-8226 was determined as 101%; in the experiment with SF-268, 110%; in the experiment with UO-31, 95.9%; in the experiment with K-562, 110%; in the experiment with ACHN it was 98.4%; in the experiment on NCI-H23, 101%. Further, the activity at 10 µM in the experiment on MDA-MB-435 amounted to 93.5%; with A549/ATCC it was 89%; in the experiment on NCI-H522, 89%; with NCI-H322M it was 121%; in the experiment with MOLT-4 it was 102%; with UACC-257, 95.3%. For the same compound, the activity at 10 µM in the experiment with MCF7 turned out to be 86.5%. In addition, the inhibition at 10 µM on VEGFR-2 tyrosine kinase stood at 9%.
As to `CCOC(=O)N1CCN(c2nnc(C)c3ccccc23)CC1` [Compound 8f, Ethyl 4–(4-methylphthalazin-1-yl)piperazine-1-carboxylate], the activity at 10 µM with SN12C turned out to be 101%; with SK-OV-3, 101%; with U251, 96%; in the experiment on HOP-92, 112%; in the experiment on SF-295, 94.2%; in the experiment with NCI/ADR-RES, 109%. The activity at 10 µM in the experiment with RPMI-8226 turned out to be 96.9%; in the experiment on SF-268 it was 101%; in the experiment with UO-31 it was 92.2%; in the experiment on K-562, 100%; in the experiment with ACHN it was 107%; in the experiment with NCI-H23 it was 104%. Besides, the activity at 10 µM in the experiment with MDA-MB-435 was found to be 97.4%; with A549/ATCC, 94.1%; in the experiment on NCI-H522, 93.8%; in the experiment with NCI-H322M, 101%; in the experiment on MOLT-4 it was 109%; with UACC-257 it was 92.4%. For the same compound, in the experiment on MCF7, the activity at 10 µM was found to be 92.1%. Moreover, the inhibition at 10 µM on VEGFR-2 tyrosine kinase was 14%.

The values are drawn from article PMC6691788, “Design and synthesis of phthalazine-based compounds as potent anticancer agents with potential antiangiogenic activity via VEGFR-2 inhibition” (Journal of Enzyme Inhibition and Medicinal Chemistry, 2019).
